# According to patent US8399681B2, “Substituted aminothiazolone indazoles as estrogen related receptor-alpha modulators” (Janssen Pharmaceutica NV, priority 2009, dated 2013):
# Target: T1, ERR1 (also known as ERR-α or ERR-1) (Homo sapiens, UniProt P11474)
# T1 sequence (P11474 193-421 limits assumed): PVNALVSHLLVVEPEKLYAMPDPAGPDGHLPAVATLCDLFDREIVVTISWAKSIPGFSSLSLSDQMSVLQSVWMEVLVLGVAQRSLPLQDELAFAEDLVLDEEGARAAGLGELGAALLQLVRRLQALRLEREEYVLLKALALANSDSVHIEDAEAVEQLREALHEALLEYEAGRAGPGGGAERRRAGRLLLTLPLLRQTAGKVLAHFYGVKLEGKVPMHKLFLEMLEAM
# Test: TR-FRET assay (disruption of co-activator peptide binding)
# Format: biochemical
# Details: 6His-tagged ERR1 LBD, GST-hSRC2 co-activator polypeptide; average of 3 independent experiments
# Procedure, shortened: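 His6-ERR1 LBD (6 nM) with GST-SRC-2 peptide (6 nM), anti-GST Eu cryptate (30 nM) and anti-His XL665 (7.5 nM) in Tris pH 8/KCl/DTT/BSA buffer, equilibrated 4-18 h at 25 °C. Ex 340, em 615/665 nm; hyperbolic dose-response fit, mean of 3 experiments.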
row,EC50,Compound
1,8 nM,"CNC(=O)[C@H]1CN(C2=NC(=O)/C(=C/c3ccc4c(cnn4Cc4ccc(Cl)cc4C(F)(F)F)c3)S2)CCN1 [Example 226, (2R)-4-[5-({1-[4-Chloro-2-(trifluoromethyl)benzyl]-1H-indazol-5-yl}methylidene)-4-oxo-4,5-dihydro-1,3-thiazol-2-yl]-N-methylpiperazine-2-carboxamide]"
2,15 nM,"CNC(=O)[C@H]1CN(C2=NC(=O)/C(=C/c3ccc4c(cnn4Cc4ccc(C(F)(F)F)cc4C(F)(F)F)c3)S2)CCN1 [Example 227, (2R)-4-[5-({1-[2,4-Bis(trifluoromethyl)benzyl]-1H-indazol-5-yl}methylidene)-4-oxo-4,5-dihydro-1,3-thiazol-2-yl]-N-methylpiperazine-2-carboxamide]"
3,26 nM,"CC(C)(C)NC(=O)[C@@H]1CN(C2=NC(=O)/C(=C/c3ccc4c(cnn4Cc4ccc(Cl)cc4C(F)(F)F)c3)S2)CCN1 [Example 228, (2S)—N-tert-Butyl-4-[5-({1-[4-chloro-2-(trifluoromethyl)benzyl]-1H-indazol-5-yl}methylidene)-4-oxo-4,5-dihydro-1,3-thiazol-2-yl]piperazine-2-carboxamide]"
4,580 nM,"CC(C)(O)c1ccc(Cn2ncc3cc(/C=C4\SC(N5CCN[C@@H](CO)C5)=NC4=O)ccc32)c(Cl)c1 [Example 229, 5-({1-[2-Chloro-4-(1-hydroxy-1-methylethyl)benzyl]-1H-indazol-5-yl}methylidene)-2-[3-(R)-(hydroxymethyl)piperazin-1-yl]-1,3-thiazol-4(5H)-one]"
5,134 nM,"C=C(C)c1ccc(Cn2ncc3cc(/C=C4\SC(N5CCN[C@@H](CO)C5)=NC4=O)ccc32)c(Cl)c1 [Example 230, 5-({1-[2-Chloro-4-(1-methylethenyl)benzyl]-1H-indazol-5-yl}methylidene)-2-[3-(R)-(hydroxymethyl)piperazin-1-yl]-1,3-thiazol-4(5H)-one]"
6,490 nM,"CC(C)(O)c1ccc(Cn2ncc3cc(/C=C4\SC(N5CCO[C@@H](CO)C5)=NC4=O)ccc32)c(Cl)c1 [Example 231, 5-({1-[2-Chloro-4-(1-hydroxy-1-methylethyl)benzyl]-1H-indazol-5-yl}methylidene)-2-[2-(R)-(hydroxymethyl)morpholin-4-yl]-1,3-thiazol-4(5H)-one]"
7,795 nM,"CN1CCN(C2=NC(=O)/C(=C/c3ccc4c(cnn4Cc4ccc(C(C)(C)O)cc4Cl)c3)S2)CC1 [Example 232, 5-({1-[2-Chloro-4-(1-hydroxy-1-methylethyl)benzyl]-1H-indazol-5-yl}methylidene)-2-(4-methylpiperazin-1-yl)-1,3-thiazol-4(5H)-one]"
8,127 nM,"C[C@@H]1CN(C2=NC(=O)/C(=C/c3ccc4c(cnn4Cc4ccc(C(C)(C)O)cc4Cl)c3)S2)C[C@H](C)N1 [Example 233, 5-({1-[2-Chloro-4-(1-hydroxy-1-methylethyl)benzyl]-1H-indazol-5-yl}methylidene)-2-(3,5-(cis)-dimethylpiperazin-1-yl)-1,3-thiazol-4(5H)-one]"
9,16 nM,"COC[C@@H]1CN(C2=NC(=O)/C(=C/c3ccc4c(cnn4Cc4ccc(C(F)(F)F)cc4C(F)(F)F)c3)S2)CCO1 [Example 234, 5-({1-[2,4-Bis(trifluoromethyl)benzyl]-1H-indazol-5-yl}methylidene)-2-[2-(S)-(methoxymethyl)morpholin-4-yl]-1,3-thiazol-4(5H)-one]"
10,5 nM,"COC[C@@H]1CN(C2=NC(=O)/C(=C/c3ccc4c(cnn4Cc4ccc(Cl)cc4C(F)(F)F)c3)S2)CCO1 [Example 235, 5-({1-[4-Chloro-2-(trifluoromethyl)benzyl]-1H-indazol-5-yl}methylidene)-2-[2-(S)-(methoxymethyl)morpholin-4-yl]-1,3-thiazol-4(5H)-one]"
11,3 nM,"COC[C@@H]1CN(C2=NC(=O)/C(=C/c3ccc4c(cnn4Cc4ccc(O)cc4C(F)(F)F)c3)S2)CCO1 [Example 236, 5-({1-[4-Hydroxy-2-(trifluoromethyl)benzyl]-1H-indazol-5-yl}methylidene)-2-[2(S)-(methoxymethyl)morpholin-4-yl]-1,3-thiazol-4(5H)-one]"
12,6 nM,O=C1N=C(N2CCO[C@@H](CO)C2)S/C1=C\c1ccc2c(cnn2Cc2ccc(Br)cc2C(F)(F)F)c1 [Example 237]
13,11 nM,"C[C@@H]1CN(C2=NC(=O)/C(=C/c3ccc4c(cnn4Cc4ccc(C(F)(F)F)cc4C(F)(F)F)c3)S2)C[C@H](C)N1 [Example 238, 5-({1-[2,4-(trifluoromethyl)benzyl]-1H-indazol-5-yl}methylidene)-2-(3,5-(cis)-dimethylpiperazin-1-yl)-1,3-thiazol-4(5H)-one]"
14,18 nM,"C[C@@H]1CN(C2=NC(=O)/C(=C/c3ccc4c(cnn4Cc4ccc(C(F)(F)F)cc4C(F)(F)F)c3)S2)C[C@H](C)N1C [Example 239, 5-({1-[2,4-Bis(trifluoromethyl)benzyl]-1H-indazol-5-yl}methylidene)-2-((3R,5S)-3,4,5-trimethylpiperazin-1-yl)-1,3-thiazol-4(5H)-one]"
15,9 nM,"C[C@@H]1CN(C2=NC(=O)/C(=C/c3ccc4c(cnn4Cc4ccc(C(F)(F)F)cc4C(F)(F)F)c3)S2)C[C@H](C)[N+]1(C)C [Example 240, (2R,6S)-4-[5-({1-[2,4-Bis(trifluoromethyl)benzyl]-1H-indazol-5-yl}methylidene)-4-oxo-4,5-dihydro-1,3-thiazol-2-yl]-1,1,2,6-tetramethylpiperazin-1-ium chloride]"
16,4 nM,"C[C@@H]1CN(C2=NC(=O)/C(=C/c3ccc4c(cnn4Cc4ccc(Cl)cc4C(F)(F)F)c3)S2)C[C@H](C)N1 [Example 241, 5-({1-[4-Chloro-2-(trifluoromethyl)benzyl]-1H-indazol-5-yl}methylidene)-2-((3R,5S)-3,5-dimethylpiperazin-1-yl)-1,3-thiazol-4(5H)-one]"
17,30 nM,"CN1CCN(C2=NC(=O)/C(=C/c3ccc4c(cnn4Cc4ccc(C(C)(C)O)cc4C(F)(F)F)c3)S2)CC1 [Example 242, 5-({1-[4-(1-Hydroxy-1-methylethyl)-2-(trifluoromethyl)benzyl]-1H-indazol-5-yl}methylidene)-2-(4-methylpiperazin-1-yl)-1,3-thiazol-4(5H)-one]"
18,38 nM,"C[C@@H]1CN(C2=NC(=O)/C(=C/c3ccc4c(cnn4Cc4ccc(C(C)(C)O)cc4C(F)(F)F)c3)S2)C[C@H](C)N1 [Example 243, 2-((3R,5S)-3,5-Dimethylpiperazin-1-yl)-5-({1-[4-(1-hydroxy-1-methylethyl)-2-(trifluoromethyl)benzyl]-1H-indazol-5-yl}methylidene)-1,3-thiazol-4(5H)-one]"
19,110 nM,"CC(C)(O)c1ccc(Cn2ncc3cc(/C=C4\SC(N5CCO[C@H](CO)C5)=NC4=O)ccc32)c(C(F)(F)F)c1 [Example 244, 5-({1-[4-(1-Hydroxy-1-methylethyl)-2-(trifluoromethyl)benzyl]-1H-indazol-5-yl}methylidene)-2-[2-(S)-(hydroxymethyl)morpholin-4-yl]-1,3-thiazol-4(5H)-one]"
20,235 nM,CC(C)(O)c1ccc(Cn2ncc3cc(/C=C4\SC(N5CCC(C(=O)O)CC5)=NC4=O)ccc32)c(C(F)(F)F)c1 [Example 245]
21,230 nM,"CC(C)(O)c1ccc(Cn2ncc3cc(/C=C4\SC(N5CCN[C@@H](CO)C5)=NC4=O)ccc32)c(C(F)(F)F)c1 [Example 246, 5-({1-[4-(1-Hydroxy-1-methylethyl)-2-(trifluoromethyl)benzyl]-1H-indazol-5-yl}methylidene)-2-[3-(R)-(hydroxymethyl)piperazin-1-yl]-1,3-thiazol-4(5H)-one]"
